Among the data in the SangsterLogP compilation are logP values, retold here.

SMILES strings stand for the structures.

As to `CC1(C)C=Cc2c(ccc3c2CCC(C)(C)O3)O1`, the logP stood at 4.01.
The value for `COc1cc2c(cc1OC)OC(C)(C)C=C2` was 2.77; that for `CC1(C)C=Cc2ccc(Cl)cc2O1` was 4.55; that for `COc1c2c(cc3c1OC(C)(C)CC3)C=CC(C)(C)O2` was 4.47.
The compound `CC1(C)C=Cc2cc(Cl)c3c(c2O1)CCC(C)(C)O3` gave a logP of 6.14.
The value for `CCOc1cc2c(cc1OC)C=CC(C)(C)O2` was 3.36.
In the case of `COc1ccc2c(c1)OC(C)(C)C=C2` it was 3.46; in that of `CCc1c2c(cc3c1OC(C)(C)C=C3)C=CC(C)(C)O2`, 6.89; in that of `CCc1cc2c(c3c1OC(C)(C)CC3)OC(C)(C)C=C2`, 6.97.
In the case of `COc1cc2c(cc1OCC(F)(F)F)C=CC(C)(C)O2` it was 4.79.
Take `Cc1ccc2c(c1)OC(C)(C)C=C2`: the logP was 4.03.
`CC1(C)C=Cc2cccc(Cl)c2O1` showed a logP of 4.06. The logP values of the last two compounds are within 0.2 log units of each other.
The value for `COc1cc2c(cc1OC)SC(C)(C)C=C2` was 3.52; that for `CC1(C)C=Cc2cc(C(C)(C)C)c3c(c2O1)CCC(C)(C)O3` was 8.17.
The value for `COc1ccc2c(c1)SC(C)(C)C=C2` was 4.32.
In the case of `COc1cc2c(cc1OCC(F)(F)F)OC(C)(C)C=C2` it was 4.49; in that of `CC1(C)C=Cc2ccccc2O1`, 3.42; in that of `CCOc1cc2c(cc1Cl)C=CC(C)(C)O2`, 4.89.
`CC1(C)C=Cc2c3c(c4c(c2O1)CCC(C)(C)O4)OC(C)(C)CC3` yielded a log partition coefficient (logP) of 7.67.
For `CC1(C)C=Cc2c(c3c(c4c2OC(C)(C)CC4)OC(C)(C)CC3)O1`, the logP was 5.8.
The value for `COCCOCCOCCOc1cc2c(c3c1OC(C)(C)CC3)OC(C)(C)CC2` was 4.86; that for `Cc1c2c(cc3c1OC(C)(C)CC3)C=CC(C)(C)O2` was 6.2.
`CCOc1cc2c(cc1Br)C=CC(C)(C)O2` showed a logP of 5.15.
Take `CC1(C)C=Cc2cc(Br)c3c(c2O1)CCC(C)(C)O3`: the lipophilicity (logP) came to 6.33.
